According to article PMC12362783 (Advanced Science, 2025):

Assays:
MDA‐MB‐468 = test: Cell growth inhibition, CellTiter‐Glo (CTG); type: cell-based
Description: (§1) All cells were grown in a humidified incubator at 37 °C and 5% CO2.
(§2) […] […] Relative viability was calculated by normalizing the raw luminescence counts of the treated groups to those of the DMSO control groups. IC₅₀ values were calculated using sigmoidal dose‐response curve fitting with GraphPad Prism 9.0 software.

MDA‐MB‐231 = test: Cell growth inhibition, CellTiter‐Glo (CTG); type: cell-based
Description: as §1, §2

MDA‐MB‐468 xenograft = test: MDA‐MB‐468 xenografted mice model, antitumor efficacy; type: in vivo; settings: 28 days
Description: Anticancer efficacy experiment in MDA‐MB‐468 Xenografted mice model was performed by Shanghai Medicilon Inc. All animal experiments in this study were conducted in strict accordance with national animal welfare regulations and were approved by the institutional animal ethics committee (Approval number: IACUC‐HZN2401P; Approval Date: 2024‐10‐18). MDA‐MB‐468 cells (1 × 10^7) were implanted in the right flanks subcutaneously in female nude mice. When the implanted tumor grew to a volume of 110 mm^3, the animals were randomly divided into four groups, each group containing four animals. Compound B8 was intraperitoneally (IP) administered at two different doses, bis in die (BID) for 28 days: low dose: 25 mg k^−1g and high dose 50 mg k^−1g. […] Tumor size and body weights were measured twice a week. On day 28, the mice were euthanized, tumors were harvested and weighed, and vital organs (heart, liver, spleen, lung, and kidney) were collected. Processed samples were saved for further safety evaluation.

PARP5A = PARP5A (Homo sapiens, UniProt O95271); test: PARP family selectivity; type: biochemical
Sequence of PARP5A (O95271 whole entry, species assumed): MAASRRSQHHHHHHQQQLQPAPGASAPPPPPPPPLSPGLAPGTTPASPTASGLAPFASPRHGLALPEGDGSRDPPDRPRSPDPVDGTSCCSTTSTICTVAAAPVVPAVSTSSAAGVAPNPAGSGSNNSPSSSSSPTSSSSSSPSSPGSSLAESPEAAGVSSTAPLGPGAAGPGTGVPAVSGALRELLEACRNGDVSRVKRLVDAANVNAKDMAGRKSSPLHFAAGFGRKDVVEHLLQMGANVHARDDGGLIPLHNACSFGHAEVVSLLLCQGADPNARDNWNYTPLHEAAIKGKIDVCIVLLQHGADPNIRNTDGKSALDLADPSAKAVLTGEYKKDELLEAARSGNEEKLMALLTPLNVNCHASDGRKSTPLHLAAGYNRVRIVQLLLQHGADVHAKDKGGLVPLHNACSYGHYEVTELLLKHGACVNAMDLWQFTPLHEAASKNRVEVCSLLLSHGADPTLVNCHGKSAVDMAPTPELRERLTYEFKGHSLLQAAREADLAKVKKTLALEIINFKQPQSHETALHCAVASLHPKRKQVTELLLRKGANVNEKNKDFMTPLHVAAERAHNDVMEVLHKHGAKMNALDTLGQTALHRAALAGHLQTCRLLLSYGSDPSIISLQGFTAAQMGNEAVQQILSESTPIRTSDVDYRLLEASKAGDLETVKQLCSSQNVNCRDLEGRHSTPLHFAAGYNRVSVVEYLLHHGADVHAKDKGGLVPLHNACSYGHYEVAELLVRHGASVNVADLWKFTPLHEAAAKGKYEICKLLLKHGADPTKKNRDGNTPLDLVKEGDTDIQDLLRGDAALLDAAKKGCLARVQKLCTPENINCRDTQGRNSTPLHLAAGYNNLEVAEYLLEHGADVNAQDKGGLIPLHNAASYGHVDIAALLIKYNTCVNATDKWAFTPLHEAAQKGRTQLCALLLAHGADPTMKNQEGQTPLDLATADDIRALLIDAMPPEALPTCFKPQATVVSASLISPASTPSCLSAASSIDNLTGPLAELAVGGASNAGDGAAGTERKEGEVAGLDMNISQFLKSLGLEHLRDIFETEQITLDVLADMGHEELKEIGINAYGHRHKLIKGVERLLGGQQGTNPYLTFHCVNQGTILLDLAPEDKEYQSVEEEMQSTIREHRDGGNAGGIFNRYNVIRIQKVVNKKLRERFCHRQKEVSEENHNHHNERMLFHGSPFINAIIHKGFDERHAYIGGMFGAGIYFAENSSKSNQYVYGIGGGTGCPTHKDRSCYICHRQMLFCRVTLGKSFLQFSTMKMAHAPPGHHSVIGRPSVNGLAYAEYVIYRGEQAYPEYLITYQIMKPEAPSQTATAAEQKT
Description: (§3) The PARP activity assay was performed by ChemPartner (Shanghai, China). Each well was precoated with histone (final conc.: 100 ng mL^−1) diluted in PBS buffer (contains 10 mmol L^−1 NaH2PO4 and 150 mmol L^−1 NaCl, pH 7.4) by incubation at 4 °C overnight. […] The reaction was initiated by the addition of 10 µL of PARP (final conc.: 0.007 nM/well) at room temperature for 60 min. Add 20 µL of anti‐Poly/Mono‐ADP Ribose Rabbit mAb. Incubate for 1.5 h at room temperature and wash the plate three times using PBST buffer. Add 20 µL of diluted (1:2000) anti‐rabbit IgG, HRP‐linked Antibody. Incubate for 1 h at room temperature and wash the plate three times using PBST buffer. Add 25 µL Femto‐ECL Substrate A and Femto‐ECL Substrate B (1:1) mix. Immediately read chemiluminescence on Envision (Revvity, USA).

PARP5B = PARP5B (Homo sapiens, UniProt Q9H2K2); test: PARP family selectivity; type: biochemical
Sequence of PARP5B (Q9H2K2 whole entry, species assumed): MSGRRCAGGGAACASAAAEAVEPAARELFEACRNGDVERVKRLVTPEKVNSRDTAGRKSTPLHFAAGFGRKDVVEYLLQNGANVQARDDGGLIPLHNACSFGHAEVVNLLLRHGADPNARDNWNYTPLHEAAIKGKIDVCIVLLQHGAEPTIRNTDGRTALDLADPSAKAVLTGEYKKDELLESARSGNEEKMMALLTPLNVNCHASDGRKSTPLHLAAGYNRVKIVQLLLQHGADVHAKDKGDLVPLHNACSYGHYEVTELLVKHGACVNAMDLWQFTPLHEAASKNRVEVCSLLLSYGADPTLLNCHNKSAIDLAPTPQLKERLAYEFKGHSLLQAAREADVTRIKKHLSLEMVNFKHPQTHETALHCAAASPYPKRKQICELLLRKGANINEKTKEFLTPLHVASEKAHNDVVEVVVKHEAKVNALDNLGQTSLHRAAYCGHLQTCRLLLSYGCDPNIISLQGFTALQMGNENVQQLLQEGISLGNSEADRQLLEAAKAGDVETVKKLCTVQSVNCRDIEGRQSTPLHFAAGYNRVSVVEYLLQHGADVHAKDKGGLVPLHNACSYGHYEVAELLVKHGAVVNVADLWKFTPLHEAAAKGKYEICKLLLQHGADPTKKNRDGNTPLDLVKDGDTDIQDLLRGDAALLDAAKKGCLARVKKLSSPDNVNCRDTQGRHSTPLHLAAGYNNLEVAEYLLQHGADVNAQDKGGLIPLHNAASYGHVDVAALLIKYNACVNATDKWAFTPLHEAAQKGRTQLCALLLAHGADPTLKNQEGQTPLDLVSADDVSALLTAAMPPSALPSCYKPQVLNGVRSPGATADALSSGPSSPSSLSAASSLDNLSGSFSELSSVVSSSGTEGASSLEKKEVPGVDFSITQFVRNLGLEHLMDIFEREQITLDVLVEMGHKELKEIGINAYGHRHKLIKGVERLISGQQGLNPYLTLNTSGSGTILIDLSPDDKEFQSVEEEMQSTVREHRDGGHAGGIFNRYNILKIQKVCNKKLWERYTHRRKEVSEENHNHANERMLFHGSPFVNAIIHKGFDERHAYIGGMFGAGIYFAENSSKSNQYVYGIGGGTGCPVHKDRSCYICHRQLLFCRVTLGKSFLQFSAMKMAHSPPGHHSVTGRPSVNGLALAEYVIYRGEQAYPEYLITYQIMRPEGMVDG
Description: as §3

MCF‐10A = test: Cell growth inhibition, normal breast cell line; type: cell-based
Description: (§4) Growth viability was determined by the CellTiter‐Glo luminescent viability assay (Promega) 5 days after drug treatment. Cell viability was measured immediately after dosing (Day 0) and after 5 days of incubation using CellTiter‐Glo (CTG, Promega, G7573). Relative viability was calculated by normalizing the raw luminescence counts of the treated groups to those of the DMSO control groups. IC₅₀ values were calculated using sigmoidal dose‐response curve fitting with GraphPad Prism 9.0 software.

[1] = tested on: MDA‐MB‐468 xenograft tumors; test: Immunohistochemistry staining of xenograft tumors; type: in vivo, mice
Description: The isolated tumor tissue was fixed in 4% paraformaldehyde for 24 h, dehydrated, embedded, and sliced. After deparaffinization, Ki67 (GB121141‐50, Servicebio), γH2AX (GB111841‐50, Servicebio), CD8 (GB15068‐50, Servicebio), or Cleaved‐caspase‐3 antibody (CST#9661) were incubated at 4 °C overnight, rinsed three times with PBS, and incubated with the secondary antibody. A DAB substrate solution was applied to the slide sections to reveal the antibody staining color. The tissue slide was dehydrated four times with alcohol. The tissue slides were then cleared three times in xylene and mounted with a mounting solution. The mounted slides could be stored at room temperature indefinitely. The immunohistochemical images were obtained under the microscope (Nikon DS‐Ri1).

ATR = target: T1, ATR (Homo sapiens, UniProt Q13535); test: ATR kinase inhibition, Mobility Shift Assay; type: biochemical; settings: n = 3, mean ± SD
T1 construct: purchased Eurofins 14-953
Description: The in vitro ATR kinase inhibitory activities were determined by ChemPartner Co., Ltd. (Shanghai, China) using the Mobility Shift Assay. The tested compound was dissolved with DMSO and diluted to 1000/3 × of the final desired highest inhibitor concentration in the reaction. […] The assay wells were incubated at 28 °C for 4 h.

PARP2 = PARP2 (Homo sapiens, UniProt Q9UGN5); test: PARP family selectivity; type: biochemical
Sequence of PARP2 (Q9UGN5 whole entry, species assumed): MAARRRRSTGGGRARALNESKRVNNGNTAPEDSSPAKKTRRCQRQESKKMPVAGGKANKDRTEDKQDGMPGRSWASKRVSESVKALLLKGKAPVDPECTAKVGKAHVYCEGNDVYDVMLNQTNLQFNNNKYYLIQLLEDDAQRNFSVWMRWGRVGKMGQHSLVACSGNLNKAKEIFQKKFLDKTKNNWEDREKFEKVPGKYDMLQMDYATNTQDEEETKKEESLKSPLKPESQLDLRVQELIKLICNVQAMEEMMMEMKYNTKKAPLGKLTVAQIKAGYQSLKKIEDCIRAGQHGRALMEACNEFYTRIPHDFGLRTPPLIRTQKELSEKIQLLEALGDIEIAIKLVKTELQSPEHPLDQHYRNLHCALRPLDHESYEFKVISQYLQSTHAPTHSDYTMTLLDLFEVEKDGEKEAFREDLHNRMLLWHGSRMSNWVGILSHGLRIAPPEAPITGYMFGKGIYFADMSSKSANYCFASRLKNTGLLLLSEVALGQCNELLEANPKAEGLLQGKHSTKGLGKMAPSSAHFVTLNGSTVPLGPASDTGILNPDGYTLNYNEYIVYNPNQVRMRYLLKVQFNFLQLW
Description: as §3, with “Add 20 µL of diluted (1:2000) anti‐rabbit IgG, HRP‐linked Antibody.” left out

PARP7 = PARP7 (Homo sapiens, UniProt Q7Z3E1); test: PARP family selectivity; type: biochemical
Sequence of PARP7 (Q7Z3E1 whole entry, species assumed): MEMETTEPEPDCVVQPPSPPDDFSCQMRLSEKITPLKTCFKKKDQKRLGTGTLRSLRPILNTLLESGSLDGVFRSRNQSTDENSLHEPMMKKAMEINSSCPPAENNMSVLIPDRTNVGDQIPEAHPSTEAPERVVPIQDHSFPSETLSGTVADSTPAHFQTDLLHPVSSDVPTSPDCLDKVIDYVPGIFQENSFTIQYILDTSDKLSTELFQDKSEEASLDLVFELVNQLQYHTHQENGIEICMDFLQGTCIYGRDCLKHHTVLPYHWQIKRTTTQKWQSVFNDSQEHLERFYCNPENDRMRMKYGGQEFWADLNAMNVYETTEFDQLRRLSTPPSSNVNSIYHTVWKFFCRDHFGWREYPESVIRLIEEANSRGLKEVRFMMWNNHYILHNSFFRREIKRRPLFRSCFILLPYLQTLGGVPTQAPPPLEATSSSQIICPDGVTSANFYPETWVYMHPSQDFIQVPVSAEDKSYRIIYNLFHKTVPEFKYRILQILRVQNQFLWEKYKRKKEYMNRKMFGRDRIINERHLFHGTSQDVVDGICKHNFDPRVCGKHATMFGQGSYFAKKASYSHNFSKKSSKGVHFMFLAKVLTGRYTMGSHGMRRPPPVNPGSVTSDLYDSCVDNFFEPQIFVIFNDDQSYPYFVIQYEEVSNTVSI
Description: as §3, with “Add 20 µL of diluted (1:2000) anti‐rabbit IgG, HRP‐linked Antibody.” left out

MDA‐MB‐453 = test: Cell growth inhibition, CellTiter‐Glo (CTG); type: cell-based; settings: Homo sapiens, MDA-MB-453; n = 3; read-out: IC50 MAD‐MB‐453
Description: as §4

MCF‐7 = test: Cell growth inhibition, CellTiter‐Glo (CTG); type: cell-based; settings: Homo sapiens, MCF7; n = 3
Description: as §4

[2] = 24, 48, 72 h treatment, Figure S2

## C[C@@H]1COCCN1c1cc(CNC(=O)c2ccc(C(=O)N3CCN(C(=O)c4cc(Cc5n[nH]c(=O)c6ccccc56)ccc4F)CC3)cc2)nc(-c2ccnc3[nH]ccc23)n1 [Compound B8, (R)‐4‐(4‐(2‐fluoro‐5‐((4‐oxo‐3,4‐dihydrophthalazin‐1‐yl)methyl)benzoyl)piperazine‐1‐carbonyl)‐N‐((6‐(3‐methylmorpholino)‐2‐(1H‐pyrrolo[2,3‐b]pyridin‐4‐yl)pyrimidin‐4‐yl)methyl) benzamide]
MDA‐MB‐468; [2]
  anti‐proliferation effect at different time points: exerted anti‐proliferation activity
MDA‐MB‐468; Homo sapiens, MDA-MB-468, 120 h, CTG, 5 days, n = 3
  IC50: 320 ± 10 nM
MDA‐MB‐231; [2]
  anti‐proliferation effect at different time points: exerted anti‐proliferation activity
MDA‐MB‐231; Homo sapiens, MDA-MB-231, 120 h, read-out: IC50 MDA‐MB‐231, CTG, 5 days, n = 3
  IC50: 1890 ± 130 nM
MDA‐MB‐468 xenograft; B8 50 mg/kg I.P., female nude mice
  tumor growth inhibition rate (TGI): 68.36%
MDA‐MB‐468 xenograft; B8‐treated mice
  tumor weight and volume: significantly lower than control groups
PARP5A
  IC50: 116 nM
PARP5A; fold of PARP1 selectivity over PARP5A
  PARP5A (selectivity over PARP1, fold): 305 fold
PARP5B
  IC50: 240 nM
PARP5B; fold of PARP1 selectivity over PARP5B
  PARP5B (selectivity over PARP1, fold): 631.6 fold
MCF‐10A; Homo sapiens, MCF-10A, @30 µM, read-out: MCF‐10A inhibitory rate at certain concentration
  inhibition at 30 µM: 17%
MCF‐10A; MCF‐10A
  inhibitory activity against normal cells: minimal inhibitory activity against normal cells
[1]
  CD8 expression in tumor tissues (IHC): increased the levels of CD8 expression
  Ki67, γH2AX and cleaved‐caspase 3 expression in tumors (IHC): decreased Ki67 expression and increased γH2AX and cleaved‐caspase 3 expression
ATR
  IC50: 17.3 ± 2.5 nM
PARP2
  IC50: 5.1 nM
PARP2; fold of PARP1 selectivity over PARP2
  PARP2 (selectivity over PARP1, fold): 13.4 fold
PARP7
  IC50: 28.5 ± 1.3 nM
PARP7; fold of PARP1 selectivity over PARP7
  PARP7 (selectivity over PARP1, fold): 75 fold
MDA‐MB‐453
  IC50: 1080 ± 30 nM
MCF‐7
  IC50: 970 ± 90 nM
